Measured values taken from patent US20240050396A1, “COMPOSITIONS AND METHODS FOR THE TREATMENT OF SOLID TUMORS” (POLYPID LTD., priority 2020, published 2024).
Where two headings read alike, the source gives them in different places.

Tests used:
NSCLC: A549 cells = details: A549, non-resistant; cited from earlier work
[1] = test system: DLD-1 colorectal carcinoma cells; details: cited from earlier work
CT-26 cell line = details: CT-26, resistant cell line; cited from earlier work
[2] = test system: HCT-8 colorectal carcinoma cells; details: cited from earlier work
KB-P-15 Epidermoid cells = details: cited from earlier work
KB-8-5 Epidermoid cells = details: cited from earlier work
[3] = test system: A549.EpoB40 non squamous cell lung carcinoma; details: cited from earlier work
CRC: HCT-116 cells = details: HCT-116, non-resistant; cited from earlier work
[4] = test system: CT-26 subcutaneous colon carcinoma tumors; details: for survival rate / tumor free animals: Day 39; for average tumor volume: after 39 days; for day animals started to gain weight: mouse, in vivo
Description: In the current experiment, the efficacy of local treatment with extended-release formulations according to some embodiments of the invention was compared to systemic treatment with Docetaxel. For that, subcutaneous colon carcinoma tumors were established in female BALB/c mice (7-8 weeks old, weighing ±16-20 gram at study initiation) and after reaching a desired volume (400-600 mm^3), they were resected and ˜90% of their volume was removed followed by administration of the test items. The recurrence rate of the tumors was followed and compared to an untreated control group.
Animals were injected SC with 0.5 million CT-26 cells above the right hip. When the tumor reached the desired volume (400 mm^3) after ˜7 days, animals were divided to five groups, mice were anesthetized, and the tumors were resected. Group 1 was administered with 200 mg of formulation VI containing 1.3% docetaxel (2.6 mg/mouse) to the tumor bed and Group 2 was administered with 200 mg of formulation I containing 0.88% docetaxel ([…]) to the tumor bed. Groups 3 and 4 were treated by repeated i.v injections of docetaxel solution. Group 3 was administered with 20 mg/kg i.v followed by five i.v injections of 10 mg/kg, once every 4 days. Group 4 was administered with 30 mg/kg i.v followed by five IV injections of 15 mg/kg, once every 4 days. Group 5 served as a saline-treated control with ˜100 μL saline administered locally into the tumor bed. The skin incision was then closed using a sterile suture. Post-surgery, the animals were returned to their cages for recovery and observation. Tumor size, clinical signs, and body weights were followed for 39 days.

[5] = test system: HCT-15 colorectal carcinoma cells; details: cited from earlier work
[6] = Pharmacokinetic profile of locally administered formulations vs i.v docetaxel (Example 11); type: in vivo, Sprague-Dawley female Rats
Description: This study compared the pharmacokinetics profile of docetaxel sustained release composition according to several embodiments of the invention administered to rats. The systemic PK profile of docetaxel released from the local administered formulations was compared to the PK profile of docetaxel administered i.v.
Animals: 30 Sprague-Dawley female Rats weighing+/−200 gram
Experimental Design—three study groups (n=10) were included in this study. Animals were anesthetized and skin above the right hip was cut (1 cm long) and lifted, creating a SC pocket. By making this pocket, the underlying muscle was slightly injured, mimicking the situation of the resection of SC tumor graft in the rat model. Each animal received the treatment as detailed in Table 7. In Groups 1 and 2, Formulations VI and I respectively were administered in the SC pocket on top of the injured muscle. The skin was then sutured. In the i.v. treated group (Group 3), the administration of treatment was given once, immediately after wound closure. After administration, blood samples were collected in the designated time points. Each treatment group was divided to two subgroups (n=5/subgroup) and each subgroup was sampled at the different time points. Blood was collected at 0.5, 1, 2, 4, 8, 12, and 24 hours and at 2, 3, 4, 5, 6, 7, 14, 21, and 30 days post-administration. Clinical signs and animal weights were followed during the study. The concentration of the released docetaxel in the plasma samples was evaluated by a liquid chromatography tandem mass spectrometry (LC-MS/MS) method (lower limit of quantitation [LLOQ]=3 ng/mL). The results were used to determine the PK profile of docetaxel.

[7] = test system: KB-PTX/099 Epidermoid cells; details: cited from earlier work
KB-D-15 Epidermoid cells = details: cited from earlier work
epidermoid KB-3-1 cells = details: KB-3-1, non-resistant; cited from earlier work
KB-V-1 Epidermoid cells = details: cited from earlier work
[8] = iv; NDA 020449; cited from earlier work
[9] = test system: 9L GBM cell line tumor in the brain; assay: Syngeneic 9L GBM intra-brain tumor survival (Example 10); type: in vivo, Fischer rats
Description: Seventy-five (75) animals were designated for this study. The animals were divided into nine groups as described in Table 6. Group 1 served as untreated control. Groups 2 and 3 served as positive controls and were treated with temozolomide (SOC chemotherapy treatment in GBM patients) by gavage in low (33.5 mg/kg) and high doses (50 mg/kg), respectively. Group 4 (n=10) was treated with Formulation II vehicle at the defect site in the same amount as the Formulation II high amount group. Groups 5-8 (n=10/group) were treated at the excision site Formulation II at 5, 10, 25, or 50 mg/defect site. At study initiation, an incision was made and the calvarium bone of all animals was exposed and 5 mm diameter defect was drilled in the calvarium bone. The dura was cut and the brain was exposed. Each animal was injected with 9L cells (10^5 cells/2 μL/animal) at a depth of ˜1 mm in the brain using a stereotaxic instrument. Following injection of the cells, the incision was sutured. Animals were returned to their cages to recover. Treatment (temozolomide or Formulation II) was set to start five days post cell injection. For Formulation II/Formulation II vehicle treatment, the brain defects in Groups 4-8 were reopened and test articles were administered on top of the site of injection, inside the defect at Day 5. The defects were sealed with bone wax. Animals were returned to their cages to recover. Survival, clinical signs, body weight, and evaluation of cognitive behavior were followed during the study.

LLC1 cell line tumors = assay: Antitumor and anti-metastatic effect on resected LLC1 tumors (Example 13); type: in vivo; details: 6 mg/kg IP twice a week
Description: The objective of this study was to assess the efficacy of the antitumor and anti-metastatic effect of different amounts of Formulation II on mouse syngeneic louis lung carcinoma (LLC1) cell line tumors in C57BL mice. The selected cell line (LLC1) is known to spontaneously form metastases in the lungs originating from a primary tumor.
Male C57BL mice, 7-8 weeks old, weighing 18-21 grams were designated for this study. LLC1 tumor cells were injected SC to the back of the mice. When the tumors reached a volume of about 400 mm^3 they were resected (at least 90% of the tumor volume was removed; average area of 0.7 cm^2). The animals were divided into 6 groups (n=10). Groups 1-4 were administered different amounts of Formulation II directly to the tumor bed. Untreated group (Group 5) served as negative control and systemically treated group (Group 6) served as positive control. Five (5) animals served as sham group, they were not injected with tumor cells but underwent the surgical procedure (Group 7). Following treatment, the surgical site was sewed and animals were returned to their cages for recovery. Animals that had tumors larger than 1500 mm^3 were humanly terminated. At termination the number of metastases in the lungs was counted in each animal.
The number of metastases was counted post termination/death. In some cases, the lungs condition didn't allow evaluation of metastases. were too decomposed and therefore the number of metastases in these lungs were not evaluated. The counting discriminated between small metastases (0.1-0.5 mm) and big metastases (>0.5 mm). In case of large number of metastases (>100), it was defined as too numerus to count (TNTC).

[10] = test system: U87 human GBM cell line tumor xenograft; assay: Resected U87 GBM xenograft, different amounts of Formulation II (Example 9); details: 300 mg/kg intraperitoneal, four times, every 7 days
Description: This study was performed to assess the efficacy of the anti-tumor effect of different amounts of the sustained release compositions according to some exemplary embodiments of the invention on U87 human GBM cell line tumor xenograft in nude mice.
Mice were injected subcutaneously (SC) with 3 million U87 cells above the right hip. When the tumor reached the volume of about 400 mm^3 after about 9 days, animals were divided to six groups (n=10/group), the mice were anesthetized, and the tumors were resected. The tumor bed sizes were measured and documented. Groups 1, 2 and 3 were administered 20, 50, or 100 mg of formulation II; 0.87% docetaxel locally on the tumor bed, respectively. Group 4 was administered 100 mg of formulation II vehicle (excipients only without DTX) locally on the tumor bed. Group 5 served as a saline control in which ˜100 μL saline was administered locally into the tumor bed. Group 6 served as positive control and was treated with gemcitabine (300 mg/kg administered as an intraperitoneal injection, four times, every 7 days). The skin incision was then closed using a sterile suture. Post-surgery, the animals were returned to their cages for recovery and observation. Tumor size, clinical signs, and body weights were followed for 43 days.
After tumor resection, the area of the tumor bed was measured. […] The applications of Formulation II were calculated and normalized to amount per 1 cm^2 tumor bed area. The normalized application rates and docetaxel doses are detailed in Table 5.

[11] = female, Sprague-Dawley, rat, intravenous, plasma docetaxel, single i.v 10 mg/kg
[12] = female, Sprague-Dawley, rat, iv, plasma docetaxel, single i.v 10 mg/kg

CC(=O)O[C@@]12CO[C@@H]1C[C@H](O)[C@@]1(C)C(=O)[C@H](O)C3=C(C)[C@@H](OC(=O)[C@H](O)[C@@H](NC(=O)OC(C)(C)C)c4ccccc4)C[C@@](O)([C@@H](OC(=O)c4ccccc4)[C@H]21)C3(C)C [docetaxel]
IC50 (NSCLC: A549 cells): 1.9 nM
IC50 [1]: 16.2 nM
IC50 (CT-26 cell line): 260 nM
IC50 [2]: 3.07 µM
IC50 (KB-P-15 Epidermoid cells): 17.6 nM
IC50 (KB-8-5 Epidermoid cells): 8.8 nM
IC50 [3]: 28.5 nM
IC50 (CRC: HCT-116 cells): 5.4 nM
survival rate ([4]; i.v 10 mg/kg every 4 days): 50%
survival rate ([4]; i.v 15 mg/kg every 4 days): 63%
tumor free animals ([4]; i.v 20 mg/kg then five injections of 10 mg/kg every 4 days): 2/8
tumor free animals ([4]; i.v 30 mg/kg then five injections of 15 mg/kg every 4 days): 3/8
average tumor volume ([4]; i.v 10 mg/kg every 4 days): 955 mm^3
average tumor volume ([4]; i.v 15 mg/kg every 4 days): 485 mm^3
overall tumor free survival ([4]; day 39 post surgery, five cycles of systemic treatment): 25%
overall tumor recurrence ([4]; end of study, extensive systemic treatment): 75%
animals terminated early due to tumor volume that exceeded 1500 mm^3 ([4]; i.v 10 mg/kg every 4 days): 4
animals terminated early due to tumor volume that exceeded 1500 mm^3 ([4]; i.v 15 mg/kg every 4 days): 2
day animals started to gain weight ([4]; 10 mg/kg): 20 days
day animals started to gain weight ([4]; 15 mg/kg): 23 days
delayed tumor recurrence after tumor resection (first tumor related mortality) ([4]; systemic treatment arm): 9 days
IC50 [5]: 54.1 nM
Cmax of i.v relative to max exposure of Formulation VI ([6]; 881 vs. 80.4 ng/ml): more than 10 fold
AUC(0-t) [6, 11]: 2280 ng·h/mL
Cmax [6, 11]: 881 ng/mL
C0 [6, 12]: 881 ng/mL
Tmax [6, 12]: 0 h
half-life [6, 12]: 1390 min
Tlast ([6]; plasma docetaxel, single i.v 10 mg/kg): 72 h
IC50 [7]: 8.8 nM
IC50 (KB-D-15 Epidermoid cells): 68.2 nM
IC50 (epidermoid KB-3-1 cells): 1.1 nM
IC50 (KB-V-1 Epidermoid cells): 468 nM

CC(=O)O[C@@]12CO[C@@H]1C[C@H](O)[C@@]1(C)C(=O)[C@H](O)C3=C(C)[C@@H](OC(=O)[C@H](O)[C@@H](NC(=O)OC(C)(C)C)c4ccccc4)C[C@@](O)([C@@H](OC(=O)c4ccccc4)[C@H]21)C3(C)C [Taxotere]
maximal tolerated dose (MTD) and non-lethal dose (NLD) reported [8]: 10 mg/kg

Cn1nnc2c(C(N)=O)ncn2c1=O [Temozolomide]
mean survival ([9]; 33.5 mg/kg PO daily for 5 days): 18.8 ± 2.7 days
mean survival ([9]; 50 mg/kg PO daily for 5 days): 21.8 ± 3.3 days
survival rate ([9]; day 23, 33.5 mg/kg, 5 treatment days): 0%

CC(=O)O[C@H]1C(=O)[C@@]2(C)[C@H]([C@H](OC(=O)c3ccccc3)[C@]3(O)C[C@H](OC(=O)[C@H](O)[C@@H](NC(=O)c4ccccc4)c4ccccc4)C(C)=C1C3(C)C)[C@]1(OC(C)=O)CO[C@@H]1C[C@@H]2O [taxel]
animals that had tumor (LLC1 cell line tumors): 4/10
average lung weight (LLC1 cell line tumors): 226 ± 114 mg
average tumor volume (LLC1 cell line tumors): 490 mm^3
average weight at termination lower than weight at t=0 (LLC1 cell line tumors): 4%
metastases free animals (lungs) (LLC1 cell line tumors): 5/10
animals early terminated due to tumor volume (LLC1 cell line tumors; day 23): One
animals found dead (LLC1 cell line tumors; day 25): one

Nc1ccn([C@@H]2O[C@H](CO)[C@@H](O)C2(F)F)c(=O)n1 [gemcitabine]
animals found dead [10]: 4
animals terminated due to tumor volume that exceeded 1500 mm^3 [10]: 4
survival rate ([10]; Day 43): 20%
tumor free animals ([10]; Day 43): 2/10
average tumor volume ([10]; after 43 days): 780 mm^3

CC(=O)O[C@H]1C(=O)[C@@]2(C)[C@H]([C@H](OC(=O)c3ccccc3)[C@]3(O)C[C@H](OC(=O)[C@H](O)[C@@H](NC(=O)c4ccccc4)c4ccccc4)C(C)=C1C3(C)C)[C@]1(OC(C)=O)CO[C@@H]1C[C@@H]2O [paclitaxel]
IC50 [1]: 32.8 nM
IC50 [2]: 3.29 µM
IC50 (KB-P-15 Epidermoid cells): 117 nM
IC50 (KB-8-5 Epidermoid cells): 70.2 nM
IC50 [3]: 128 nM
IC50 [5]: 435 nM
IC50 [7]: 74.1 nM
IC50 (KB-D-15 Epidermoid cells): 566 nM
IC50 (KB-V-1 Epidermoid cells): 3200 nM
